Experimental data taken from patent US20080227806A1, “Novel Drugs for Dementia” (AMERICAN LIFE SCIENCE PHARMACEUTICALS, priority 2005, published 2008).
Where “and” joins values, the source holds several entries; their conditions need not be identical. Equal values may be shown once.

Tests used:
hippocampus neurons = conditions: primate ischemic animal model; cited from earlier work
synaptosome Aβ = test: Synaptosome total Aβ by ELISA after icv infusion; assay type: in vivo; conditions: guinea pig
Description: (§1) In vivo icv administration of protease inhibitors into guinea pig brains. Guinea pigs (Harley strain, 300-500 grams) were obtained from Charles River (Wilmington, Mass.). The animals were given free access to food and water before and during the experiment. An ALZET osmotic mini-pump (ALZET company, Cupertino, Calif.) was implanted subcutaneously in the mid-scapular area of the back of each animal. A catheter was connected to the osmotic mini-pump and inserted into the lateral ventricle of the brain (using a brain infusion kit manufactured by ALZET).
(§2) E64d or CA074Me (from CalBiochem, San Diego, Calif.) were each administered to guinea pig brains by icv minipump infusion at a rate of […] with each compound at 1 mg/ml in saline (with 1.5% DMSO). Each e64d and control group consisted of five animals; each CA074Me and control group consisted of ten animals. Continuous infusion was conducted for 7 days and 30 days. At the end of each infusion period, animals were sacrificed and half the brain was prepared as extracts for ELISA measurement of Aβ peptide levels conducted in triplicate with Ab ELISAs (from Biosource International). The other half brain was used for isolation of synaptosome preparations and Ab analyses.
(§3) Brain Extracts. Brain extracts were prepared by subjecting fresh tissues to homogenization at 1:10 w/v in guanidine buffer consisting of 5 M guanidine-HCl in 50 mM Tris-HCl, pH 8.3 (buffer reagents from Sigma-Aldrich, St. Louis, Mo.). Homogenates were agitated at room temperature for 3-4 hours, then stored at −20° C. The day before the ELISA assay, the tissue samples were diluted further by 1:10 for a final guanidine concentration of 0.5 M. These diluted homogenates were then centrifuged at 14,000 rpm for 20 minutes at 4° C. and supernatants were collected for measurement of total Ab, and Aβ40 and Aβ42 separately, by ELISA assay. Isolation of synaptosomes from brain. Synaptosomes were prepared by homogenization of fresh brain tissue in isotonic sucrose (320 mM), pH 7.4, 1 mM EDTA, 0.25 mM dithiothreitol, and 30 U/ml RNAse inhibitor. […] For quantitation of Aβ peptides, ELISA assays were used to measure Aβ levels. […] CTFβ fragments derived from APP were analyzed by western blots with antibody MAB 1560 (Chemicon, Temecula, Calif.). The sAPPα fragment derived from APP was analyzed by western blots with antibody MAB 343 (Chemicon, Temecula, Calif.). […]
(§4) Data Analyses. Data were analyzed by one-way analysis of variance for analyses of statistical significance of the effects of compounds on Ab levels, with p<0.05 indicating statistical significance, using GraphPad Prism software program. Following ANOVA analyses among treatment groups, individual group values for Ab levels were analyzed using Dunnett's multiple comparison test. […]

[1] = rats, high dose; cited from earlier work
[2] = Japan; cited from earlier work
total Aβ (Ab40 and Ab42) = test: Brain total Aβ by ELISA after icv infusion into guinea pig brains; assay type: in vivo; conditions: constant icv infusion, 1 mg/ml
Description: as §1, §2, §3, §4

[3] = Phase III study; cited from earlier work
Aβ40 = test: Brain Aβ40 by specific ELISA after icv infusion; assay type: in vivo; conditions: guinea pig, 7 days
Description: as §1, with “ALZET). […]” for “ALZET).”
(§5) Brain Extracts. […] For quantitation of Aβ peptides, ELISA assays were used to measure Aβ levels. […] CTFβ fragments derived from APP were analyzed by western blots with antibody MAB 1560 (Chemicon, Temecula, Calif.). The sAPPα fragment derived from APP was analyzed by western blots with antibody MAB 343 (Chemicon, Temecula, Calif.). […]
as §4

Aβ42 = test: Brain Aβ42 by specific ELISA after icv infusion; assay type: in vivo; conditions: guinea pig, 7 days
Description: as §1, with “ALZET). […]” for “ALZET).”
as §5, §4

sAPPα = test: Brain sAPPα by western blot densitometry after icv infusion; assay type: in vivo; conditions: guinea pig, 7 days, densitometric scanning of western blots
Description: as §1, with “ALZET). […]” for “ALZET).”
as §5, §4

CTFβ = test: Brain CTFβ by western blot densitometry after icv infusion; assay type: in vivo; conditions: guinea pig, 7 days, densitometric scanning of western blots
Description: as §1, with “ALZET). […]” for “ALZET).”
as §5, §4

SMILES | protection of brain neurons during ischemia (hippocampus neurons) | reduction of synaptosome Aβ relative to controls (synaptosome Aβ; 7 days) [%] | reduction of synaptosome Aβ relative to controls (synaptosome Aβ; 30 days) [%] | liver toxicity [1] | Phase I clinical trial outcome [2] | reduction of brain total Aβ relative to control (total Aβ (Ab40 and Ab42); 7 days) [%] | reduction of brain total Aβ relative to control (total Aβ (Ab40 and Ab42); 30 days) [%] | efficacy for muscular dystrophy [3] | reduction of Aβ40 in brain extracts (Aβ40) [%] | reduction of Aβ42 in brain (Aβ42) [%] | increase in brain sAPPα above control (sAPPα) [%] | reduction in brain CTFβ relative to controls (CTFβ)
CC(C)CCNC(=O)C(CC(C)C)NC(=O)C1OC1C(=O)O (centres unmarked) [e64c, 3-[3-methyl-1-(3-methyl-butylcarbamoyl)-butylcarbamoyl]-oxirane-2-carboxylic acid] | protect hippocampus neurons from damage | – | – | – | – | – | – | – | – | – | – | –
CCOC(=O)[C@H]1O[C@@H]1C(=O)N[C@@H](CC(C)C)C(=O)NCCC(C)C [E64d, oxiranecarboxylic acid, 3-[[[(1S)-3-methyl-1-[[(3-methylbutyl)amino]carbonyl]butyl]amino]carbonyl], ethyl ester] | – | 27 | 50 | liver toxicity was found | successfully passed Phase I clinical trials | 31 | 55 | low efficacy for muscular dystrophy | – | – | – | –
CCCNC(=O)[C@H]1O[C@@H]1C(=O)N[C@H](C(=O)N1CCC[C@H]1C(=O)OC)[C@@H](C)CC [CA074Me, L-Proline, N[[(2S,3S)3[(propylamino)carbonyl]oxiranyl]carbonyl]-L-isoleucyl-, methyl ester] | – | 62 | 74 | – | – | 57 | 62 | – | 47 | 56 | 60 | 45% and 44%
CCCNC(=O)C1OC1C(=O)NC(C(=O)N1CCCC1C(=O)O)C(C)CC (centres unmarked) [CA074, 1-{3-methyl-2-[(3-propylcarbamoyl-oxiranecarbonyl)-amino]-pentanoyl}-pyrrolidine-2-carboxylic acid] | protect hippocampus neurons from damage | – | – | – | – | – | – | – | – | – | – | –
